molecular target: T1, human S1P1 receptor (Homo sapiens, UniProt P21453); experiment: GTP γ35S binding assay for S1P1 activity; type: biochemical; conditions: activity potency, S1P1 receptor from GTP γ35S binding; 5 μg membrane protein; test compounds 0.08 to 5,000 nM; 30 min at 25° C.
T1 construct: expressed in transfected cells; membranes used
Description: Compounds were synthesized and tested for S1P1 activity using the GTP γ^35S binding assay. These compounds may be assessed for their ability to activate or block activation of the human S1P1 receptor in cells stably expressing the S1P1 receptor.
GTP γ^35S binding was measured in the medium containing (mM) HEPES 25, pH 7.4, MgCl2 10, NaCl 100, dithitothreitol 0.5, digitonin 0.003%, 0.2 nM GTP γ^35S, and 5 μg membrane protein in a volume of 150 μl. Test compounds were included in the concentration range from 0.08 to 5,000 nM unless indicated otherwise. Membranes were incubated with 100 μM 5′-adenylylimmidodiphosphate for 30 min, and subsequently with 10 μM GDP for 10 min on ice. Drug solutions and membrane were mixed, and then reactions were initiated by adding GTP γ^35S and continued for 30 min at 25° C. Reaction mixtures were filtered over Whatman GF/B filters under vacuum, and washed three times with 3 mL of ice-cold buffer (HEPES 25, pH7.4, MgCl2 10 and NaCl 100). Filters were dried and mixed with scintillant, and counted for ^35S activity using a β-counter. Agonist-induced GTP γ^35S binding was obtained by subtracting that in the absence of agonist. Binding data were analyzed using a non-linear regression method. In case of antagonist assay, the reaction mixture contained 10 nM […] in the presence of test antagonist at concentrations ranging from 0.08 to 5000 nM.

T1 sequence (P21453 whole entry): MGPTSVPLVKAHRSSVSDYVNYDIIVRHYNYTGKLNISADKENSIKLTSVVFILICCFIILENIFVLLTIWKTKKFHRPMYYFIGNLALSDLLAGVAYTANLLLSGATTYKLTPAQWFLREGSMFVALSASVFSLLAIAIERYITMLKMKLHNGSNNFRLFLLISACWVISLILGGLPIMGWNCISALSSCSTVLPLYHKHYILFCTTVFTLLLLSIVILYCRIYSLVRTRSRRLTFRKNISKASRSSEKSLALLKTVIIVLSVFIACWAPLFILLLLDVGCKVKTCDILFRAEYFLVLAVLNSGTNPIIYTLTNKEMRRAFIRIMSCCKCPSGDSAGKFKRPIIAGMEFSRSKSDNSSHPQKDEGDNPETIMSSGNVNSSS

| Structure (SMILES) | EC50 [µM] |
| --- | --- |
| Cc1ccc(-c2nnc(SC(C)c3ccc(CNCCCP(=O)(O)O)cc3)o2)cc1C (centres unmarked) [(3-{[4-(1-{[5-(3,4-dimethylphenyl)-1,3,4-oxadiazol-2-yl]thio}ethyl)benzyl]amino}propyl)phosphonic acid] | 0.888 |
| Cc1ccc(-c2nnc(SCc3ccc(CNCCCP(=O)(O)O)cc3)o2)cc1C [(3-{[4-({[5-(3,4-dimethylphenyl)-1,3,4-oxadiazol-2-yl]thio}methyl)benzyl]amino}propyl)phosphonic acid] | 0.805 |
| O=P(O)(O)CCCNCc1ccc(-c2nnc(SCc3cccc(Cl)c3F)o2)cc1 [Compound 1, {3-[(4-{5-[(3-chloro-2-fluorobenzyl)thio]-1,3,4-oxadiazol-2-yl}benzyl)amino]propyl}phosphonic acid] | 0.853 |
| Cc1cc(CNCCCP(=O)(O)O)ccc1-c1nnc(SC(C)c2cccc([N+](=O)[O-])c2)o1 (centres unmarked) [Compound 6, (3-{[3-methyl-4-(5-{[1-(3-nitrophenyl)ethyl]thio}-1,3,4-oxadiazol-2-yl)benzyl]amino}propyl)phosphonic acid] | 0.231 |
| CCC(Sc1nnc(-c2ccc(CNCCCP(=O)(O)O)cc2C)o1)c1cccc([N+](=O)[O-])c1 (centres unmarked) [Compound 7, (3-{[3-methyl-4-(5-{[1-(3-nitrophenyl)propyl]thio}-1,3,4-oxadiazol-2-yl)benzyl]amino}propyl)phosphonic acid] | 0.05 |
| O=[N+]([O-])c1cccc(CSc2nnc(-c3ccc(CNCCCP(=O)(O)O)cc3)o2)c1 [Compound 9, {3-[(4-{5-[(3-nitrobenzyl)thio]-1,3,4-oxadiazol-2-yl}benzyl)amino]propyl}phosphonic acid] | 1.81 |
| Cc1ccc(CSc2nnc(-c3ccc(CNCCCP(=O)(O)O)cc3)o2)cc1C [Compound 10, {3-[(4-{5-[(3,4-dimethylbenzyl)thio]-1,3,4-oxadiazol-2-yl}benzyl)amino]propyl}phosphonic acid] | 0.097 |
| CCc1cc(CNCCCP(=O)(O)O)ccc1-c1nnc(SC(C)c2cccc([N+](=O)[O-])c2)o1 (centres unmarked) [Compound 11, (3-{[3-ethyl-4-(5-{[1-(3-nitrophenyl)ethyl]thio}-1,3,4-oxadiazol-2-yl)benzyl]amino}propyl)phosphonic acid] | 0.03 |
| CCCC(Sc1nnc(-c2ccc(CNCCCP(=O)(O)O)cc2)o1)c1ccccc1 (centres unmarked) [Compound 14, {3-[(4-{5-[(1-phenylbutyl)thio]-1,3,4-oxadiazol-2-yl}benzyl)amino]propyl}phosphonic acid] | 0.0015 |
| CCCC(Sc1nnc(-c2ccc(CNCCCP(=O)(O)O)cc2)o1)c1cccc(Cl)c1F (centres unmarked) [Compound 15, (3-{[4-(5-{[1-(3-chloro-2-fluorophenyl)butyl]thio}-1,3,4-oxadiazol-2-yl)benzyl]amino}propyl)phosphonic acid] | 0.0018 |
| CCC(Sc1nnc(-c2ccc(CNCCCP(=O)(O)O)cc2)o1)c1cccc([N+](=O)[O-])c1 (centres unmarked) [Compound 16, (3-{[4-(5-{[1-(3-nitrophenyl)propyl]thio}-1,3,4-oxadiazol-2-yl)benzyl]amino}propyl)phosphonic acid] | 0.04 |
| CC(Sc1nnc(-c2ccc(CNCCCP(=O)(O)O)cc2)o1)c1cccc([N+](=O)[O-])c1 (centres unmarked) [Compound 17, (3-{[4-(5-{[1-(3-nitrophenyl)ethyl]thio}-1,3,4-oxadiazol-2-yl)benzyl]amino}propyl)phosphonic acid] | 0.382 |
| CCc1cc(CNCCCP(=O)(O)O)sc1-c1nnc(SC(C)c2cccc([N+](=O)[O-])c2)o1 (centres unmarked) [Compound 26, [3-({[4-ethyl-5-(5-{[1-(3-nitrophenyl)ethyl]sulfanyl}-1,3,4-oxadiazol-2-yl)thiophen-2-yl]methyl}amino)propyl]phosphonic acid] | 1.26 |
| Cc1cc(CNCCCP(=O)(O)O)sc1-c1nnc(SC(C)c2cccc([N+](=O)[O-])c2)o1 (centres unmarked) [Compound 27, [3-({[4-methyl-5-(5-{[1-(3-nitrophenyl)ethyl]sulfanyl}-1,3,4-oxadiazol-2-yl)thiophen-2-yl]methyl}amino)propyl]phosphonic acid] | 0.2 |
